Results: ChEMBL document CHEMBL5579832, “Design, synthesis, and biological evaluation of pyrido[2,3-d]pyrimidin-7(8H)-one derivatives as potent USP1 inhibitors” (Eur J Med Chem, 2024)
Activity calls are given as the source filed them. The calls are words filed in the database; no cut-off is given here.

Columns and labels:
[1] = Cmax in male ICR mouse at 10 mg/kg, po administered as single dose and measured after 24 hrs; assay type: ADME, organism-based; details: in vivo
MDA-MB-436 = experiment: Induction of cell cycle arrest in human MDA-MB-436 cells assessed as increase in cells at S phase at 1 uM incubated for 24 hrs by PI staining based flow cytometry analysis; assay type: functional
[2] = biological target: T1, Ubiquitin carboxyl-terminal hydrolase 15 (Homo sapiens) (UniProt Q9Y4E8); experiment: Inhibition of recombinant human 6His-tagged USP15 using diubiquitin as a substrate at 0 to 10 uM preincubated for 15 mins followed by substrate addition and measured after 2 hrs by SDS-PAGE analysis; details: dose 0-10 µM, time 135.0 min
T1 sequence (whole entry): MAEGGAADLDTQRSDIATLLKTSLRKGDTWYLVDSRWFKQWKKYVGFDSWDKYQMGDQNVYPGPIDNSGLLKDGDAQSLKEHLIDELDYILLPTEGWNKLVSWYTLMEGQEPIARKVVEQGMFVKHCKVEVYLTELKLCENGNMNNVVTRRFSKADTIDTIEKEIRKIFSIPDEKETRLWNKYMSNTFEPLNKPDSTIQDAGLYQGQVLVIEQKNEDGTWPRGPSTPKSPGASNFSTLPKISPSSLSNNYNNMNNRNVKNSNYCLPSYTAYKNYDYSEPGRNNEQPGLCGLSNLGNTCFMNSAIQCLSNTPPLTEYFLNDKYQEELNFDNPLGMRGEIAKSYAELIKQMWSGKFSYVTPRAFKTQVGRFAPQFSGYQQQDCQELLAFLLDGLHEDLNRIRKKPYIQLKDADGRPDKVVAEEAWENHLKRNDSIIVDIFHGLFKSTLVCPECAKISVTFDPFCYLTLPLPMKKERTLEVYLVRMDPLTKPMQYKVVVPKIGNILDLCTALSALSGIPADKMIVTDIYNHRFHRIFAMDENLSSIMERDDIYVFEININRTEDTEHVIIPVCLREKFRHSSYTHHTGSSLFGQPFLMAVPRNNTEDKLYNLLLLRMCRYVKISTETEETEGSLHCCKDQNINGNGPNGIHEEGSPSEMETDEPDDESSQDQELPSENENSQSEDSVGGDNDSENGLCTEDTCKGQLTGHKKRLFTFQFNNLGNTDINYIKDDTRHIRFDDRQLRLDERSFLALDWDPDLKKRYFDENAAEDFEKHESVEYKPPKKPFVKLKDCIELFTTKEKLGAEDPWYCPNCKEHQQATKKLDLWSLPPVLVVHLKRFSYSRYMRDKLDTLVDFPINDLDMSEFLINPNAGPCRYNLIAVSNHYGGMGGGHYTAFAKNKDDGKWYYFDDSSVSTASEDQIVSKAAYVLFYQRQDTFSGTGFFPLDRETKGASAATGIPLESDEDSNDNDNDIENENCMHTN

[3] = biological target: Ubiquitin carboxyl-terminal hydrolase 1/WD repeat-containing protein 48 (Homo sapiens) (UniProt O94782+Q8TAF3); experiment: Inhibition of USP1/UAF1 in human MDA-MB-436 cells assessed as increase in Ub-PCNA level at 20 nM incubated for 24 hrs by Western blot analysis; assay type: cell-based

Cmax [1]: 4780 ng/mL
inhibition [2]: inactive
inhibition [3]: Active
SMILES: COc1ncnc(C2CC2)c1-c1ncc2ccc(=O)n(Cc3ccc(-c4nc(C(F)(F)F)cn4C(C)C)cc3)c2n1
Activity (MDA-MB-436): Active
